How the values were obtained:
Type in all cases: cell-based
HBsAg = assay: PHH HBV natural infection assay, HBsAg (alphalisa); conditions: Hepatitis B virus, Hepatocyte, read-out: HBsAg IC50
Summary of the method: (§1)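 Primary human hepatocytes infected with HBV at 200 GE/cell plus 4% PEG8000 for 24 h, then sandwich-cultured 72 h in medium with 1% DMSO. Compound applied twice at 72-h intervals; supernatant HBsAg and HBeAg quantified by AlphaLISA.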

[1] = Cytotoxicity in PHH natural infection assay (Cell Counting Kit-8); conditions: HBV-infected primary human hepatocytes, CCK8
Summary of the method: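 HBV-infected primary human hepatocytes (200 GE/cell, 4% PEG8000, 24 h), then sandwich-cultured 72 h. Cells dosed at varying concentrations for two 72-hour cycles, with medium refreshed. Cytotoxicity read by CCK-8 at end of treatment.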

HBeAg = assay: PHH HBV natural infection assay, HBeAg (alphalisa); conditions: Hepatitis B virus, Hepatocyte, read-out: HBeAg IC50
Summary of the method: as §1

| Compound | IC50 (HBsAg) [µM] | CC50 at 144 h [1] [µM] | IC50 (HBeAg) [µM] |
| --- | --- | --- | --- |
| O=C(NC1CCC2(CC1)CCN(c1nc3cc(Cl)ccc3o1)CC2)c1ccc(S(=O)(=O)C2CC2)o1 [Example 122, N-[3-(5-chloro-1,3-benzoxazol-2-yl)-3-azaspiro[5.5]undecan-9-yl]-5-cyclopropylsulfonyl-furan-2-carboxamide] | 0.384 | > 100 | 0.473 |
| O=C(NC1CC2(CCN(c3nc4ccc(Cl)cc4o3)C2)C1)C1CCS(=O)(=O)C1 (stereo not drawn) [Example 73, N-[6-(6-chloro-1,3-benzoxazol-2-yl)-6-azaspiro[3.4]octan-2-yl]-1,1-dioxo-thiolane-3-carboxamide] | 6.32 | > 100 | 3.05 |
| O=C(NC1CCN(c2nc3cc(Cl)ccc3o2)CC1)c1ccc(C(F)(F)F)o1 [Example 12, N-[1-(5-chloro-1,3-benzoxazol-2-yl)-4-piperidyl]-5-(trifluoromethyl)furan-2-carboxamide] | 4.59 | > 100 | 5.44 |
